Entries after “also recorded” stand apart in the source; their conditions may differ.
Assays:
[1] = system: mTORC1 and mTORC2 activity in GSC M83 and JK83 cells; experiment: Immunoblot of mTORC1 and mTORC2 activity in GSCs; assay type: cell-based
Description: (§1) FIG. 5. A mTORC1/2 inhibitor AZD2014 inhibited cell survival, mTORC1 and mTORC2 activities in GSCs and glioma cells. (A) GSC M83 and JK83 and glioma cells U87 were treated with indicated concentration of AZD2014 for 72 h, then cell viability was evaluated. (B) GSC M83 and JK83 were treated with the indicated concentration of AZD2014 for 1 hr, or with 2 μM AZD2014 for the specified time. Cells were collected for immunoblot analysis. β-actin was used as a loading control; Results are representative of 2 independent experiments. *P<0.05, **P<0.01, paired two-way Student's t-test. Data are representative from three independent experiments with similar results.
(§2) FIG. 6. NSC enhanced the cytotoxicity of a mTORC1/2 inhibitor AZD2014 in GSCs. (A) GSC M83 and JK83 were exposed to DMSO control vs AZD2014 vs NSCs vs AZD2014 in combination with NSC for 72 hr. Cells were collected for immunoblot analysis using indicated antibodies. (B) Immunofluorescence analyses for LC3B puncta in GSC M83 and JK83 cells with indicated treatments. (C and D) GSC M83 and JK83 and/or neural progenitor cells (NPC) were treated as indicated in (A), cell viability was tested at 72 h after treatment (C), and cell apoptosis was measured by Annexin V FACS assay 48 h after treatment. Data are representative from three independent experiments with similar results.
IB assays were performed as previously described (Huang et al., 2016b). Specific antibodies were used according to the manufacturer's instructions: LC3B (#3868S), pAKT (Ser473; 4060), pAKT(Thr308; 4056), AKT (4691), pS6(S235/236; 2211), S6 (2317), phosphorylated 4E-binding protein 1 (p4EBP1) (Thr37/46; 2855), 4EBP1 (9644), p-mTOR (Ser2448; 2971S), p-mTOR (Ser2481; 2974S), mTOR (2972S), pULK1(Ser317; 14202T), pULK1 (Ser757; 8054T), ULK1(6439), LAMP2 (49067S) were from Cell Signaling Technology. Anti-β-actin (SC-47778) and anti-SQSTM1/p62 (SC-28359) antibodies were from Santa Cruz Biotechnology. An anti-Ki-67 antibody (AB9260) was from EMD Millipore.
(§3) mTOR kinases are crucial regulators of glioma cell growth, proliferation and survival (Akhavan et al., 2010). […] A strong inhibition was achieved by 1 μM with complete block of mTORC1/2 activities at 2 μM (FIG. 5B).
(§4) Since autophagy activation is considered as a cytoprotective factor that contribute to tumor survival when challenged by therapies, it is proposed that block of autophagy activation by NSC would further enhanced the cytotoxicity of dual TORC1/2 inhibitor AZD2014.

GSC JK83 and M83 = experiment: Cell viability assay, AZD2014 and NSC, 72 h; assay type: cell-based
Description: as §1, §2
GSCs with single or combined treatments were cultured for 72 hours in 96-well plates at 2,000 cells per well. Cell viabilities were determined using CellTiter-Glow 2.0 Assay (Promega).
as §3, §4

[2] = system: LC3B puncta in GSC M83 and JK83 cells; experiment: LC3B immunofluorescence (puncta, autophagosomes); assay type: cell-based; settings: NSC in cells treated with AZD2014
Description: as §2
Immunofluorescent staining. GSCs were seeded onto LabTek CC2-treated tissue culture slides (Thermo Fisher) and cultured for 24 hours. Cells were then fixed with 4% formaldehyde (Fisher) for 15 min, and permeabilized with 0.1% Triton X-100, and then blocked with AquaBlock (East Coast Bio, North Berwick, Me.) for 60 minutes. The slides were incubated with indicated primary antibodies according to the manufacturer's instructions. After being washed for three times with PBS-T, cells were incubated with secondary antibody (Alexa 488 and 594, 1:200) and DAPI-containing mounting solution Vectashield (Vector Laboratories). Cells were analyzed on a Nikon inverted microscope Eclipse Ti-U equipped with a digital camera. […]

U87 cells = experiment: Cell viability assay, AZD2014, 72 h; assay type: cell-based
Description: as §1
Glioma cells U87 (from ATCC) were cultured in DMEM (Invitrogen) supplemented with 10% FBS and 1% penicillin and streptomycin. Neural progenitor cells were cultured in NPBM Neural Progenitor Basal medium supplemented with hEGF, hFGF, NSF-1 and GA (Lonza, Cat #: cc-3210, cc-4241 and cc-4242). […]
GSCs with single or combined treatments were cultured for 72 hours in 96-well plates at 2,000 cells per well. Cell viabilities were determined using CellTiter-Glow 2.0 Assay (Promega). […]

[3] = system: GSC JK83 orthotopic xenografts; experiment: GSC JK83 orthotopic brain tumor xenograft model (survival, BLI, tissue staining); assay type: in vivo, mice
Text: FIG. 7. NSC enhance anticancer efficacy of AZD2014 in a patient-derived GSC xenograft model. […] Treatments were started at one week post-implantation. Bioluminescent (BLI) images were taken after the last treatment, and representative images are shown. Scale bar, photons/sec/cm2/steradian. (B) Kaplan-Meier of mice bearing GSC JK83 orthotopic xenografts with indicated treatments. (C) The brains of mice bearing orthotopic xenografts with indicated treatments were collected for immunohistochemical evaluation using indicating antibody. *P<0.05, **p<0.01, […]. Data are representative from three independent experiments with similar results.
Frozen brain tissue sections with GBM xenografts were dried and then fixed in were fixed in 4% paraformaldehyde (PFA) in PBS for 5 minutes. Tissue sections were blocked with AquaBlock (East Coast Bio, North Berwick, Me.) for an hour and then were probed with appropriate primary antibodies 4° C. overnight. Tissue sections were incubated with Alexa 488 or 594 labelled secondary antibodies (1:200) and DAPI-containing mounting solution Vectashield (Vector Laboratories), and representative images were photographed using a Nikon inverted microscope Eclipse Ti-U equipped with a digital camera.
To determine whether the enhancement of AZD2014 therapeutic efficiency by combination with NSC measured in vitro extends to an orthotopic model, GSC JK83 glioma spheres were employed to initiate intracerebral xenografts in mice.

[4] = system: LC3B, p62/SQSTM-1 and LAMP2 in GSC M83 and JK83 cells; experiment: Immunoblot of autophagy markers (LC3B, p62, LAMP2) in GSCs treated with AZD2014 and NSC; assay type: cell-based; settings: NSC in the presence of AZD2014
Description: as §1
as §2, with “results. […]” for “results.”

[5] = system: intracranial GBM6FL TMZ res xenografts; experiment: Intracranial PDX GBM6FL temozolomide resistant xenograft model; assay type: in vivo, mice; settings: compared to vehicle-treated brain xenografts
Text: FIG. 8. Combination therapy of autophagy inhibitor NSC185058 (NSC) with IR+TMZ suppressed growth of intracranial GBM6FL temozolomide (TMZ) resistant (res) xenografts. […] Mice were imaged at the indicated day after the implantation, and representative BLI images are shown. (B) Changes in the body weight of the mice in each respective treatment groups. (C, D) Effects of NSC, IR, TMZ and the indicated combinations on GBM6FL TMZ res orthotopic xenografts in mice. The luminescence of xenograft tumors formed by indicated treatment. **p<0.01 compared to vehicle controls. Colored scale bars represent photons/s/cm2/steradian. (E, F) Kaplan-Meier (E) and log-rank p value analyses (F) of mice bearing GBM6FL TMZ res orthotopic xenografts with indicated treatments. First and second IR+TMZ+NSC tri-treatments were started at day 7 and day 35 post-implantation, respectively.
GBM6FL TMZ res orthotopic xenograft model was recently established by Dr. Charles David James at Northwestern University as intracranial GBM xenografts after three runs of TMZ treatments and subsequent passages in the flanks of mice.

| SMILES | mTOR signaling and ULK1 phosphorylation ([1]; GSC83 and JK83 cells, 72 hr) | concentration giving complete block of mTORC1/2 activities ([1]; GSC M83 and JK83) [µM] | concentration giving strong inhibition of mTORC1/2 activities ([1]; GSC M83 and JK83) [µM] | time by which inhibition of mTORC1 and mTORC2 was detectable ([1]; GSC M83 and JK83, 2 μM AZD2014) [h] | inhibition of p-S6, p-4EBP1, p-AKT (Ser473) ([1]; GSC M83 and JK83, 1 hr) | cell viability (GSC JK83 and M83; 72 h, combination compared with monotherapy, AZD2014 alone) | concentration at which cell viability was significantly decreased (GSC JK83 and M83; GSC JK83 and M83, 72 h) [µM] | inhibition efficiency on GSCs compared with glioma cells (GSC JK83 and M83; same concentration of AZD2014, GSCs vs U87) | autophagosomes number (LC3 B immunofluorescence) [2] | concentration at which cell viability was significantly decreased (U87 cells) [µM] | levels of p-4EBP1 and p-AKT in tumor tissues ([3]; AZD2014 alone or in combination with NSC vs control) | mouse survival ([3]; NSC (100 mg/kg), AZD2014 (50 mg/kg), alone or combined, vs control) | autophagy markers (LC3B conversion, p62 and LAMP2 degradation) [4] | response of xenografts to TMZ treatments [5] |
| --- | --- | --- | --- | --- | --- | --- | --- | --- | --- | --- | --- | --- | --- | --- |
| CNC(=O)c1cccc(-c2ccc3c(N4CCOC[C@@H]4C)nc(N4CCOC[C@@H]4C)nc3n2)c1 [AZD2014, vistusertib] | inhibited mTOR induced p-52448/81-mTOR, p-S473-Akt, p-S6, p-S757-ULK1 | 2 | 1 | ≤ 2 | dose-dependently inhibited p-S6, p-4EBP1, and p-AKT (Ser473) | displayed inhibitor effects on GBM cell viability | 1 | significantly lower than glioma cells | increase of autophagosomes number | 0.1 | significantly reduced in the levels of p-4EBP1 and p-AKT | modest but significant effects on mouse survival | increased LC3-II conversion (LC3B-II/I ratio) and p62/SQSTM-1 degradation; also recorded: induced autophagic influx by inducing LC3B lipidation and degradation of p62 and LAMP2 |  |
| Cn1nnc2c(C(N)=O)ncn2c1=O [TMZ, temozolomide] |  |  |  |  |  |  |  |  |  |  |  |  |  | no response |

Source: patent US11793816B2, “Methods for enhancing cytotoxic cancer therapy through inhibition of ATG4B” (Northwestern University, priority 2019, dated 2023)
